Measured values published in patent US8318697B2, “Prophylactic and therapeutic treatment of infectious and other diseases with mono- and disaccharide-based compounds” (Corixa Corporation, priority 2000, dated 2012).
“And” between values parts separate entries of the source, which are not always exact repeats. Equal entries are not always repeated. Where two headings read alike, the source gives them in different places.

Experiments:
human whole blood = type: cell-based; settings: for cytokine stimulation in human whole blood cultures: overnight culture
[1] = test system: L. monocytogenes 10403 serotype; assay: Murine Listeria monocytogenes challenge model; type: in vivo, Mice; settings: 1 μg intravenously in 0.2% TEOA, challenge two days later; FIGS. 14-17
Procedure: This example provides experiments evaluating the induction of non-specific resistance in the murine Listeria monocytogenes challenge model performed using various AGPs and MPL. Mice (5 per group) were treated intravenously with the 1 μg of an AGP or MPL solubilized in 0.2% TEOA. Two days later the mice were challenged intravenously with a ˜10^5 L. monocytogenes 10403 serotype (provided by M. L. Gray, Montana State University, Bozeman, Mont.). Two days after the challenge, the mice were sacrificed and the number of colony forming units (CFUs) in the spleens of individual mice were determined by plating 10-fold serial dilutions of splenic homogenates on tryptic soy agar plates. The degree of protection afforded by a given AGP or MPL was calculated by subtracting the average number of bacteria per spleen (log 10 value) in the group of mice treated with a given compound, from the average number of bacteria per spleen (log 10 value) in a control group that was “sham” treated with vehicle (0.2% TEOA) prior to challenge with L. monocytogenes.

[2] = test system: Ogawa P. gingivalis LPS stimulated whole blood cells; assay: Inhibition of LPS-induced cytokines in whole blood; type: cell-based, human; settings: 10, 5, 2.5 ug/mL
Source text: Table 4 provides the maximum levels of IL-4, IL-2 and IL-5 obtained, as well as ratios of TNF to IL-10, and ratios of IL-10 to TNF. Inhibition data for IL-8, reported as a percentage, are also provided on the right hand side of Table 4. For example, 90% inhibition would calculate to a 90% reduction of cytokine levels. MIP-1β results were similar. […]

Compound | TNFα/IL10 cba (human whole blood; donor 2, ratio of TNF to IL-10) | protection against L. monocytogenes challenge (reduction of log 10 bacteria per spleen vs vehicle) [1] | cytokine stimulation in human whole blood cultures (human whole blood) | % inhib. LPS IL-8 [2] [%] | other results
CCCCCCCCCCCCCC(=O)O[C@H](CCCCCCCCCCC)CC(=O)NCCCO[C@@H]1O[C@H](CO)[C@@H](OP(=O)(O)O)[C@H](OC(=O)C[C@@H](CCCCCCCCCCC)OC(=O)CCCCCCCCCCCCC)[C@H]1NC(=O)C[C@@H](CCCCCCCCCCC)OC(=O)CCCCCCCCCCCCC.CCN(CC)CC [RC-525] | 1.2 | – | – | – | IL10/TNFα cba (human whole blood; donor 1, ratio of IL-10 to TNF): 3.7; TNFα/IL10 cba (human whole blood; donor 1, ratio of TNF to IL-10): 1.8; IL10/TNFα cba (human whole blood; donor 2, ratio of IL-10 to TNF): 0.7
CCCCCCCCCCCCCC(=O)O[C@H](CCCCCCCCCCC)CC(=O)NCCCCO[C@@H]1O[C@H](CO)[C@@H](OP(=O)(O)O)[C@H](OC(=O)C[C@@H](CCCCCCCCCCC)OC(=O)CCCCCCCCCCCCC)[C@H]1NC(=O)C[C@@H](CCCCCCCCCCC)OC(=O)CCCCCCCCCCCCC.CCN(CC)CC [RC-557] | 0.5 | – | – | – | IL10/TNFα cba (human whole blood; donor 1, ratio of IL-10 to TNF): 0.6; TNFα/IL10 cba (human whole blood; donor 1, ratio of TNF to IL-10): 0.6
CCCCCCCCCCC[C@H](CC(=O)N[C@@H](CCC(=O)O)CO[C@@H]1O[C@H](CO)[C@@H](OP(=O)(O)O)[C@H](OC(=O)C[C@@H](CCCCCCCCCCC)OC(=O)CCCCCCCCC)[C@H]1NC(=O)C[C@@H](CCCCCCCCCCC)OC(=O)CCCCCCCCC)OC(=O)CCCCCCCCC.CCN(CC)CC [RC-573] | – | protection that was equal to or greater than that provided by MPL | – | – | –
CCCCCCCCCCC[C@H](CC(=O)N[C@H]1[C@H](OC[C@H](NC(=O)C[C@@H](CCCCCCCCCCC)OC(=O)CCCCCCCCC)C(=O)O)O[C@H](CO)[C@@H](OP(=O)(O)O)[C@@H]1OC(=O)C[C@@H](CCCCCCCCCCC)OC(=O)CCCCC)OC(=O)CCCCCCCCC.CCN(CC)CC [RC-566] | – | – | little if any cytokine stimulation | 93 | –
CCCCCCCCCCC[C@H](CC(=O)N[C@H]1[C@H](OCCCN(CC(=O)O)C(=O)C[C@@H](CCCCCCCCCCC)OC(=O)CCCCCCCCC)O[C@H](CO)[C@@H](OP(=O)(O)O)[C@@H]1OC(=O)C[C@@H](CCCCCCCCCCC)OC(=O)CCCCCCCCC)OC(=O)CCCCCCCCC.CCN(CC)CC [RC-558] | – | protection that was equal to or greater than that provided by MPL | – | – | –
CCCCCCCCCCC[C@H](CC(=O)N[C@H]1[C@H](OC[C@H](NC(=O)C[C@@H](CCCCCCCCCCC)OC(=O)CCCCCCC)C(=O)O)O[C@H](CO)[C@@H](OP(=O)(O)O)[C@@H]1OC(=O)C[C@@H](CCCCCCCCCCC)OC(=O)CCCCCCC)OC(=O)CCCCCCC.CCN(CC)CC [RC-555] | 0.8 | – | little if any cytokine stimulation | 99 | IL-1β cba2 (human whole blood; donor 1): 519; IL10/TNFα cba (human whole blood; donor 2, ratio of IL-10 to TNF): 1.2
CCCCCCCCCCCCCC(=O)O[C@H](CCCCCCCCCCC)CC(=O)NCCCCCCO[C@@H]1O[C@H](CO)[C@@H](OP(=O)(O)O)[C@H](OC(=O)C[C@@H](CCCCCCCCCCC)OC(=O)CCCCCCCCCCCCC)[C@H]1NC(=O)C[C@@H](CCCCCCCCCCC)OC(=O)CCCCCCCCCCCCC.CCN(CC)CC [RC-571] | – | – | – | – | IL10/TNFα cba (human whole blood; donor 1, ratio of IL-10 to TNF): 8.6; TNFα/IL10 cba (human whole blood; donor 1, ratio of TNF to IL-10): 0.5
CCCCCCCCCCC[C@H](CC(=O)N[C@@H](CCO)CO[C@@H]1O[C@H](CO)[C@@H](OP(=O)(O)O)[C@H](OC(=O)C[C@@H](CCCCCCCCCCC)OC(=O)CCCCCCCCC)[C@H]1NC(=O)C[C@@H](CCCCCCCCCCC)OC(=O)CCCCCCCCC)OC(=O)CCCCCCCCC.CCN(CC)CC [RC-541] | – | protection that was equal to or greater than that provided by MPL | – | – | –
CCCCCCCCCCC[C@H](CC(=O)N[C@H]1[C@H](OC[C@H](NC(=O)C[C@@H](CCCCCCCCCCC)OC(=O)CCCCCCCCC)C(N)=O)O[C@H](CO)[C@@H](OP(=O)(O)O)[C@@H]1OC(=O)C[C@@H](CCCCCCCCCCC)OC(=O)CCCCCCCCC)OC(=O)CCCCCCCCC.CCN(CC)CC [RC-522] | – | protection that was equal to or greater than that provided by MPL | – | – | IL10/TNFα cba (human whole blood; donor 1, ratio of IL-10 to TNF): 2.7; TNFα/IL10 cba (human whole blood; donor 1, ratio of TNF to IL-10): 0.4
CCCCCCCCCCC[C@H](CC(=O)NCCO[C@@H]1O[C@H](CO)[C@@H](OP(=O)(O)O)[C@H](OC(=O)C[C@@H](CCCCCCCCCCC)OC(=O)CCCCCCCCC)[C@H]1NC(=O)C[C@@H](CCCCCCCCCCC)OC(=O)CCCCCCCCC)OC(=O)CCCCCCCCC.CCN(CC)CC [RC-524] | 0.3 | protection that was equal to or greater than that provided by MPL | – | – | IL10/TNFα cba (human whole blood; donor 1, ratio of IL-10 to TNF): 1.8; TNFα/IL10 cba (human whole blood; donor 1, ratio of TNF to IL-10): 0.2; IL10/TNFα cba (human whole blood; donor 2, ratio of IL-10 to TNF): 4
CCCCCCCCCCC[C@H](CC(=O)N[C@H]1[C@H](OC[C@H](NC(=O)C[C@@H](CCCCCCCCCCC)OC(=O)CCCCC)C(=O)O)O[C@H](CO)[C@@H](OP(=O)(O)O)[C@@H]1OC(=O)C[C@@H](CCCCCCCCCCC)OC(=O)CCCCCCCCC)OC(=O)CCCCC.CCN(CC)CC [RC-570] | – | – | little if any cytokine stimulation | 100 | –
CCCCCCCCCCC[C@H](CC(=O)N[C@H]1[C@H](OC[C@H](NC(=O)C[C@@H](CCCCCCCCCCC)OC(=O)CCCCCCCCCC)C(=O)O)O[C@H](CO)[C@@H](OP(=O)(O)O)[C@@H]1OC(=O)C[C@@H](CCCCCCCCCCC)OC(=O)CCCCCCCCCC)OC(=O)CCCCCCCCCC.CCN(CC)CC [RC-538] | – | – | – | −3 | IL10/TNFα cba (human whole blood): 0.5 and 0.3; IL-1β cba2 (human whole blood): 7767; TNFα/IL10 cba (human whole blood): 2.3 and 4
CCCCCCCCCCC[C@H](CC(=O)N[C@@H](CO)CO[C@@H]1O[C@H](CO)[C@@H](OP(=O)(O)O)[C@H](OC(=O)C[C@@H](CCCCCCCCCCC)OC(=O)CCCCCCCCC)[C@H]1NC(=O)C[C@@H](CCCCCCCCCCC)OC(=O)CCCCCCCCC)OC(=O)CCCCCCCCC.CCN(CC)CC [RC-545] | – | protection that was equal to or greater than that provided by MPL | – | – | –
CCCCCCCCCCC[C@H](CC(=O)N[C@H]1[C@H](OC[C@H](NC(=O)C[C@@H](CCCCCCCCCCC)OC(=O)CCCCCCCCC)C(=O)O)O[C@H](CO)[C@@H](OP(=O)(O)O)[C@@H]1OC(=O)C[C@@H](CCCCCCCCCCC)OC(=O)CCCCC)OC(=O)CCCCC.CCN(CC)CC [RC-567] | – | – | little if any cytokine stimulation | 100 | –
CCCCCCCCCCC[C@H](CC(=O)N[C@H]1[C@H](OC[C@H](NC(=O)C[C@@H](CCCCCCCCCCC)OC(=O)CCCCCCCC)C(=O)O)O[C@H](CO)[C@@H](OP(=O)(O)O)[C@@H]1OC(=O)C[C@@H](CCCCCCCCCCC)OC(=O)CCCCCCCC)OC(=O)CCCCCCCC.CCN(CC)CC [RC-537] | – | – | – | 33 | IL-1β cba2 (human whole blood): 8353
CCCCCCCCCCC[C@H](CC(=O)N[C@H]1[C@H](OC[C@@H](NC(=O)C[C@@H](CCCCCCCCCCC)OC(=O)CCCCCCCCC)C(=O)O)O[C@H](CO)[C@@H](OP(=O)(O)O)[C@@H]1OC(=O)C[C@@H](CCCCCCCCCCC)OC(=O)CCCCCCCCC)OC(=O)CCCCCCCCC.CCN(CC)CC [RC-547] | – | protection that was equal to or greater than that provided by MPL | – | – | –
CCCCCCCCCCCC(=O)O[C@H](CCCCCCCCCCC)CC(=O)N[C@H]1[C@H](OC[C@H](NC(=O)C[C@@H](CCCCCCCCCCC)OC(=O)CCCCCCCCCCC)C(=O)O)O[C@H](CO)[C@@H](OP(=O)(O)O)[C@@H]1OC(=O)C[C@@H](CCCCCCCCCCC)OC(=O)CCCCCCCCCCC.CCN(CC)CC [RC-560] | – | – | – | −1 | IL-1β cba2 (human whole blood): 5833
CCCCCCCCCCCCCC(=O)O[C@H](CCCCCCCCCCC)CC(=O)N[C@H]1[C@H](OC[C@H](NC(=O)C[C@@H](CCCCCCCCCCC)OC(=O)CCCCCCCCCCCCC)C(=O)O)O[C@H](CO)[C@@H](OP(=O)(O)O)[C@@H]1OC(=O)C[C@@H](CCCCCCCCCCC)OC(=O)CCCCCCCCCCCCC.CCN(CC)CC [RC-512] | 3.9 | – | – | −1 | IL-1β cba2 (human whole blood; donor 1): 3230; IL10/TNFα cba (human whole blood; donor 2, ratio of IL-10 to TNF): 0.4
CCCCCCCCCCC[C@H](CC(=O)N[C@H]1[C@H](OC[C@H](NC(=O)C[C@@H](CCCCCCCCCCC)OC(=O)CCCCCC)C(=O)O)O[C@H](CO)[C@@H](OP(=O)(O)O)[C@@H]1OC(=O)C[C@@H](CCCCCCCCCCC)OC(=O)CCCCCC)OC(=O)CCCCCC.CCN(CC)CC [RC-554] | 0.9 | – | little if any cytokine stimulation | 100 | IL-1β cba2 (human whole blood; donor 1): 545; IL10/TNFα cba (human whole blood; donor 2, ratio of IL-10 to TNF): 1.1
CCCCCCCCCCC[C@H](CC(=O)N[C@H]1[C@H](OC[C@H](NC(=O)C[C@@H](CCCCCCCCCCC)OC(=O)CCCCC)C(=O)O)O[C@H](CO)[C@@H](OP(=O)(O)O)[C@@H]1OC(=O)C[C@@H](CCCCCCCCCCC)OC(=O)CCCCC)OC(=O)CCCCCCCCC.CCN(CC)CC [RC-568] | – | – | little if any cytokine stimulation | 96 | –
